Data on 15 molecules can be found in ChEMBL document CHEMBL6109130, “PaAP-Activatable NIR Probe for Diagnosing, Imaging, and Discovering Small-Molecule Therapeutics against Implant-Associated Biofilm Infections” (J Med Chem, 2025).

The target in series [1] is T1, Aminopeptidase (Pseudomonas aeruginosa) (UniProt Q9HZQ8).
T1 sequence (whole entry): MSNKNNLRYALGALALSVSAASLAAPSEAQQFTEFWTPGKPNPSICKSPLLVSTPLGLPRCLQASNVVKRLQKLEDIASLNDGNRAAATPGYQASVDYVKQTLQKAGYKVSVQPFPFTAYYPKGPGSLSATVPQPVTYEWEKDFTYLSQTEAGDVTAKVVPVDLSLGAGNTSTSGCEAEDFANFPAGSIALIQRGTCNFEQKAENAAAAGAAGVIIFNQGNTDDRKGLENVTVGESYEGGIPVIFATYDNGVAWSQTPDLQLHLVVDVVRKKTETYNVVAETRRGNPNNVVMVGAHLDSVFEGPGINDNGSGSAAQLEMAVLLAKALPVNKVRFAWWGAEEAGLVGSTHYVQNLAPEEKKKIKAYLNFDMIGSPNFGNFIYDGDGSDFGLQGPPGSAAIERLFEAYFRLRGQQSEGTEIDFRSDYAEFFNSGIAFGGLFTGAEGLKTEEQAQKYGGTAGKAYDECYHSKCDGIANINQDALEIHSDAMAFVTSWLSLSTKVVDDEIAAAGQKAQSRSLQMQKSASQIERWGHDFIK
Description: Inhibition of Pseudomonas aeruginosa aminopeptidase (PaAP) assessed as decrease in fluorescent intensity using fluorescent probe Hcy-NEO-Leu at 1 mM measured after 3 hrs.

Series [2] can be described thus: Cytotoxicity against human A-375 cells assessed as cell viability at 25 uM measured after 24 hrs by CCK-8 assay relative to control. Particulars: read-out: Activity. The format is toxicity, cell-based.
The nature of series [3]: Cytotoxicity against human HepG2 cells assessed as cell viability at 25 uM measured after 24 hrs by CCK-8 assay relative to control. It is filed as toxicity, cell-based. Particulars: read-out: Activity.
Series [4] in a line: Cytotoxicity against human HT-1080 cells assessed as cell viability at 25 uM measured after 24 hrs by CCK-8 assay relative to control. It is filed as toxicity, cell-based. The note with it: read-out: Activity.
The nature of series [5]: Cytotoxicity against mouse BV-2 cells assessed as cell viability at 25 uM measured after 24 hrs by CCK-8 assay relative to control. The note with it: read-out: Activity. The format is toxicity, cell-based.
For series [6], the system named is Pseudomonas aeruginosa. Description: Antimicrobial activity against Pseudomonas aeruginosa ATCC27853 assessed as viability at 50 uM. The format is functional, organism-based.
In series [7] the target is T2, Aminopeptidase (Pseudomonas aeruginosa, UniProt Q9HZQ8).
T2 sequence (Q9HZQ8 whole entry): T1 sequence (whole entry)
Description: Inhibition of Pseudomonas aeruginosa aminopeptidase (PaAP) assessed as decrease in fluorescent intensity using fluorescent probe Hcy-NEO-Leu measured after 3 hrs.

Series [8] has as its target T1, Aminopeptidase (Pseudomonas aeruginosa). The experiment in a line: Inhibition of aminopeptidase (PaAP) in Pseudomonas aeruginosa PAO1 biofilm assessed as Hcy-NEO-Leu mediated fluorescence at 1 mM measured after 1 hr measured after 48 hrs by CLSM imaging based assay.
Series [9] has as its system Enterococcus faecium. The experiment in a line: Antimicrobial activity against Enterococcus faecium ATCC29212 assessed as viability at 0.39 to 100 uM. It is filed as functional, organism-based. Particulars: dose 0.39-100 µM.
Series [10] relates to Staphylococcus aureus. The experiment in a line: Antimicrobial activity against Staphylococcus aureus ATCC25923 assessed as viability at 0.39 to 100 uM. The format is functional, organism-based. Particulars: dose 0.39-100 µM.
The subject of series [11] is Klebsiella pneumoniae. The experiment in a line: Antimicrobial activity against Klebsiella pneumonia ATCC 700603 assessed as viability at 0.39 to 100 uM. The format is functional, organism-based. Particulars: dose 0.39-100 µM.
Series [12] has as its system Acinetobacter baumannii. Description: Antimicrobial activity against Acinetobacter baumannii ATCC19606 assessed as viability at 0.39 to 100 uM. It is filed as functional, organism-based. Particulars: dose 0.39-100 µM.
In series [13] the test system is Pseudomonas aeruginosa. Description: Antimicrobial activity against Pseudomonas aeruginosa PAO1 assessed as viability at 0.39 to 100 uM. The format is functional, organism-based. The note with it: dose 0.39-100 µM.
The subject of series [14] is HepG2. The experiment in a line: Cytotoxicity against human HepG2 cells assessed as cell viability measured after 24 hrs by CCK-8 assay. It is filed as functional, cell-based.
The test system of series [15] is A-375. Description: Cytotoxicity against human A-375 cells assessed as cell viability measured after 24 hrs by CCK-8 assay. It is filed as functional, cell-based.
Series [16] deals with BV-2. Description: Cytotoxicity against mouse BV-2 cells assessed as cell viability measured after 24 hrs by CCK-8 assay. The format is functional, cell-based.
Series [17] concerns HK-2. Description: Cytotoxicity against human HK2 cells assessed as cell viability measured after 24 hrs by CCK-8 assay. It is filed as functional, cell-based.
The target of series [18] is T1, Aminopeptidase (Pseudomonas aeruginosa). The experiment in a line: Inhibition of aminopeptidase (PaAP) in wild type Pseudomonas aeruginosa assessed as decrease in fluorescent intensity using fluorescent probe Hcy-NEO-Leu at 50 uM measured after 3 hrs.
Series [19] shares this target. The experiment in a line: Inhibition of aminopeptidase (PaAP) in Pseudomonas aeruginosa delta(PaAP) assessed as decrease in fluorescent intensity using fluorescent probe Hcy-NEO-Leu at 50 uM measured after 3 hrs.
Series [20] relates to Pseudomonas aeruginosa. Description: Reduction in aminopeptidase (PaAP) expression level in Pseudomonas aeruginosa PAO1 at 50 to 200 uM by ELISA relative to control. The format is functional. The note with it: dose 50-200 µM.
The target of series [21] is T1, Aminopeptidase (Pseudomonas aeruginosa). The experiment in a line: Inhibition of aminopeptidase (PaAP) in Pseudomonas aeruginosa PAO1 biofilm assessed as Hcy-NEO-Leu mediated fluorescence at 50 uM measured after 1 hr measured after 48 hrs by CLSM imaging based assay.
Series [22] has as its system Pseudomonas aeruginosa. The experiment in a line: Anti-biofilm activity against Pseudomonas aeruginosa PAO1 on nail (implant surface) using Hcy-NEO-Leu probe at 50 uM by fluorescence imaging analysis. It is filed as functional, organism-based.
Series [23] concerns Pseudomonas aeruginosa. The experiment in a line: Anti-biofilm activity against Pseudomonas aeruginosa PAO1 on surgical suture (implant surface) using Hcy-NEO-Leu probe at 50 uM by fluorescence imaging analysis. It is filed as functional, organism-based.
Series [24] relates to Pseudomonas aeruginosa. Description: Anti-biofilm activity against Pseudomonas aeruginosa PAO1 on catheter (implant surface) using Hcy-NEO-Leu probe at 50 uM by fluorescence imaging analysis. The format is functional, organism-based.
The test system of series [25] is Pseudomonas aeruginosa. The experiment in a line: Anti-biofilm activity against Pseudomonas aeruginosa PAO1 at 50 uM by crystal violet staining based optical microscopy relative to control. The format is functional.
Series [26] concerns Pseudomonas aeruginosa. The experiment in a line: Induction of antibiotic susceptibility of Pseudomonas aeruginosa PAO1 assessed as reduction in tobramycin resistance by measuring bio-film fluorescence image at 50 uM incubated for 2 days followed by treated with tobramycin for 24 hrs by Calcein-AM/PI dual staining based Confocal microscopy. The format is functional, organism-based. The note with it: time 3.0 day.

Series [27] has as its system Pseudomonas aeruginosa. Description: Anti-biofilm activity against Pseudomonas aeruginosa PAO1 biofilm exposed to RAW264.7 cells assessed as increase in bacterial uptake by macrophages at 50 uM measured after 12 hrs by LB plate assay. It is filed as functional, organism-based.
For series [28], the system named is Pseudomonas aeruginosa. The experiment in a line: Anti-biofilm activity against Pseudomonas aeruginosa PAO1 deltaPaAP biofilm exposed to RAW264.7 cells assessed as increase in bacterial uptake by macrophages at 50 uM measured after 12 hrs by LB plate assay. The format is functional, organism-based.
Series [29] has as its system Pseudomonas aeruginosa. The experiment in a line: In vivo anti-biofilm activity against pre colonized mature Pseudomonas aeruginosa PAO1 subcutaneously transplanted catheter in mouse model assessed as reduction in fluorescence signal using Hcy-NEO-Leu probe relative to control group. The format is functional.
In series [30] the test system is Pseudomonas aeruginosa. The experiment in a line: In vivo anti-biofilm activity against pre colonized mature Pseudomonas aeruginosa PAO1 subcutaneously transplanted catheter in mouse model assessed as reduction in bacterial CFU using Hcy-NEO-Leu probe. The format is functional, organism-based.

Active and inactive are the calls of the source. No cut-off for these calls is given here.

For `S=C1O[C@H]2[C@H]3c4cc5c(cc4CN4CCC(=C[C@H]2N1c1cccnc1)[C@H]34)OCO5`, the inhibition entry in [1] is “Active”.

Consider `CC1(C)C(/C=C/C2=C3Oc4cc(O)ccc4C=C3CCC2)=[N+](CCCCCC(=O)NC[C@H]2O[C@@H](O[C@@H]3[C@@H](O)[C@H](N)C[C@H](N)[C@H]3O[C@H]3O[C@H](CN)[C@@H](O)[C@H](O)[C@H]3N)[C@H](O)[C@@H]2O[C@H]2O[C@@H](CN)[C@@H](O)[C@H](O)[C@H]2N)c2ccccc21`, for which the viability at 24 h, 25 µM in [2], in series [3], in series [4] and in [5] was greater than 80% throughout. Besides, the result in [6] was inactive.

For `O=C1C=C2CCN3Cc4cc5c(cc4[C@H]([C@@H]1O)[C@@H]23)OCO5`, the inhibition entry in series [1] is “Active”.

On to `CC(C)(C)[Si](C)(C)OC1CCC(N2C(=S)O[C@H]3[C@H]4c5cc6c(cc5CN5CCC(=C[C@H]32)[C@H]45)OCO6)CC1` (some centres not stated), for which the inhibition entry in [1] is “Active”.

For the molecule `O=C(Nc1ccc(Cl)cc1)O[C@H]1[C@H]2c3cc4c(cc3CN3CCC(=C[C@@H]1O)[C@H]23)OCO4`, the inhibition result in series [1] is “Active”.

For `O[C@H]1[C@H]2c3cc4c(cc3CN3CCC(=C[C@@H]1O)[C@H]23)OCO4`, in series [1], the inhibition entry was “Active”.

As to `O=C(NC1CCCCC1)O[C@H]1[C@H]2c3cc4c(cc3CN3CCC(=C[C@@H]1O)[C@H]23)OCO4`, the inhibition result in series [1] was “Active”.

As for `CC(C)C[C@H](NC(=O)[C@@H](O)[C@H](N)Cc1ccccc1)C(=O)O` [UBENIMEX], in [7], the concentration for half-maximal inhibition (IC50) came out at 521 µM. Besides, in series [8], the inhibition came to 100%.

Take `O=C1O[C@H]2[C@H]3c4cc5c(cc4CN4CCC(=C[C@H]2N1c1ccc(Cl)cc1)[C@H]34)OCO5`: in series [1], the inhibition result was “Active”.

`CC(C)C[C@H](N)C(=O)Nc1ccc(COc2ccc3c(c2)OC2=C(/C=C/C4=[N+](CCCCCC(=O)NC[C@H]5O[C@@H](O[C@@H]6[C@@H](O)[C@H](N)C[C@H](N)[C@H]6O[C@H]6O[C@H](CN)[C@@H](O)[C@H](O)[C@H]6N)[C@H](O)[C@@H]5O[C@H]5O[C@@H](CN)[C@@H](O)[C@H](O)[C@H]5N)c5ccccc5C4(C)C)CCCC2=C3)cc1`: the viability at 24 h, 25 µM in series [2], in series [3], in [4] and in [5] was greater than 80% in each case. The result in series [6] was inactive.

With `O=C(COc1ccccc1)O[C@@H]1C(=O)C=C2CCN3Cc4cc5c(cc4[C@H]1[C@@H]23)OCO5`, the inhibition result in [1] is “Active”.

For `O=C(O[C@H]1[C@H]2c3cc4c(cc3CN3CCC(=C[C@@H]1O)[C@H]23)OCO4)C1CCCCC1`, the inhibition result in series [1] is “Active”.

On to `O=C(O)CCNC(=O)c1ccc(/N=N/c2ccc(O)c(C(=O)O)c2)cc1` [BALSALAZIDE], for which the IC50 in series [7] amounted to 39.2 µM.

For the molecule `O=C(CSc1ccc(F)cc1)O[C@@H]1C(=O)C=C2CCN3Cc4cc5c(cc4[C@H]1[C@@H]23)OCO5`, the inhibition result in [1] was “Active”.

With `O[C@H]1[C@H]2c3cc4c(cc3CN3CCC(=C[C@@H]1OC(=S)Nc1ccccc1)[C@H]23)OCO4`, the inhibition result in [1], in series [18] and in series [21] was “Active” each time. Moreover, the IC50 in series [7] was determined as 36.8 µM. Also, the outcome in series [9], in [10], in series [11], in series [12], in [13] and in [14] was inactive. The outcome in series [15], in [16] and in [17] was inactive. Moreover, the inhibition result in [19] is “inactive”. Moreover, the outcome in [20], in series [22], in series [23], in series [24], in series [26] and in series [27] was Active. Besides, the outcome in [28] and in series [30] was Active. Further, the Activity in series [25] is less than 50%. Moreover, the “fold change (FC)” value in series [29] was determined as 2.65.
